The subject of series [1] is broiler chickens. The experiment in a line: Growth performance trial with broiler chickens (day 8 to day 29). The conditions noted are these: for Feed conversion (g feed/g gain) / Feed conversion relative to control (control 100.0) / Feed intake (g/bird) / Feed intake relative to control (control 100.0) / Weight gain (g/bird) / Weight gain relative to control (control 100.0): Day 8-29. It is filed as in vivo, chickens (ROSS PM3). Here is the method: A growth performance trial with broiler chickens was performed from day 8 to day 29. The chickens were housed in wire-floored battery cages. From day-old until day 8, the chickens were fed a pre-experimental diet based on wheat, maize and soybean meal. In the experimental period (day 8 to 29) the chickens received diets based on wheat, rye and soybean meal (composition see Table 1). Groups of birds were weighed on days 8, 15, 22 and 29. The feed consumption for the intermediate periods was determined and body weight gain and feed conversion ratio were calculated.
Beside an un-supplemented control treatment and a positive control containing 10 mg of the antibiotic Avilamycin per kg feed, benzoic acid (VevoVitall) was included at 500 mg per kg feed. In addition, per kg feed, combinations of 250 mg benzoic acid and 50 mg of the composition comprising thymol, eugenol and piperine (herein abbreviated by TEP) as well as either 500 mg benzoic acid and 25 mg TEP or 500 mg benzoic acid and 50 mg TEP were tested, respectively.

For series [2], the system named is poultry. The conditions noted are these: cited from earlier work.
For series [3], the system named is pig. To be noted: cited from earlier work.

Some results are limits rather than exact numbers.

Consider `COC[C@H]1O[C@@H](OC2OC[C@@H]3O[C@]4(O[C@H]3[C@H]2OC(=O)C(C)C)O[C@H](C)[C@@](O)(C(C)=O)[C@@H]2OCO[C@H]24)[C@@H](OC)[C@@H](O)[C@@H]1O[C@@H]1O[C@H](C)[C@H](OC)[C@H](O[C@H]2C[C@@]3(C)OC4(C[C@@H](O)[C@H](O[C@H]5C[C@@H](O)[C@H](OC(=O)c6c(C)c(Cl)c(O)c(Cl)c6OC)[C@@H](C)O5)[C@@H](C)O4)O[C@@H]3[C@@H](C)O2)[C@H]1O` (some centres unmarked) [Avilamycin], for which, in series [1] (Avilamycin 10 mg per kg feed), the “Improvement in weight gain compared to the control” value stood at 8.7% and the “Improvement of feed conversion (FCR) compared to the negative control” value was determined as 4.3%. In addition, in series [1] (dose 10 mg/kg feed), the “Feed conversion (g feed/g gain)” value was 2.008 ± 0.052 g feed/g gain, the “Feed conversion relative to control (control 100.0)” value is on record as 95.7, the “Feed intake (g/bird)” value came to 2533 ± 199.6 g/bird and the “Feed intake relative to control (control 100.0)” value is listed as 104.1. Further, in series [1] (dose 10 mg/kg feed), the “Weight gain (g/bird)” value is 1261 ± 76.8 g/bird and the “Weight gain relative to control (control 100.0)” value is reported as 108.7.
With `O=C(O)c1ccccc1` [VevoVitall, benzoic acid], in series [2], the “Dosage in feed at which undesired adverse effects occur” value is listed as more than 5000 mg/kg poultry feed. Moreover, in series [1] (dose 500 mg/kg feed), the “Feed conversion (g feed/g gain)” value was found to be 2.117 ± 0.093 g feed/g gain, the “Feed conversion relative to control (control 100.0)” value is given as 100.8, the “Feed intake (g/bird)” value is recorded as 2538 ± 309.6 g/bird and the “Feed intake relative to control (control 100.0)” value turned out to be 104.3. In series [1] (dose 500 mg/kg feed), the “Weight gain (g/bird)” value came to 1196 ± 103.0 g/bird and the “Weight gain relative to control (control 100.0)” value turned out to be 103.1. Further, the “Improvement in weight gain compared to the control” value in series [1] (VevoVitall alone at 500 mg/kg) stood at 3%. In series [3], the “Dosage in feed at which undesired adverse effects occur” value is on record as more than 10000 mg/kg pig feed.

Source of the values: patent US8980335B2, “Use of organic acids and essential oils in animal feeding” (DSM IP Assets B.V., priority 2007, dated 2015).
